A short description of the series: Temperature stress experiments: thermal stability of the solid forms, purity by HPLC. In kind it is physicochemical. Particulars: for HPLC Purity Start: solid form before temperature stress; for HPLC Purity: solid. The text has this: Temperature Stress Experiments For the investigation of the thermal stability, the solid forms A, B and M are heated in open test tubes (l: 110 mm, d: 5 mm) or in test tubes closed by means of a glass stamp in an oil bath at temperatures and for a period of time as given in the Table. Subsequently, the purity of the remaining products is investigated by means of HPLC methods (column: LunaRP18 (25×0.46 cm); mobile phase: acetonitrile:methanol: 0.02M aq. ammonium acetate:triethylamine (55:5:40:0.05). (s): test tube with glass stamp

Each structure is given as a SMILES string. Where a name gives a salt, the structure may show the parent alone.

The values below come from patent US20040034022A1, “Polymorphic forms/hydrates of n-[4-(3-chloro-4-fluorophenylamino)-7-(3-morpholin-4-ylpropoxy)-quinazolin-6-yl]-acrylamide dihydrochloride” (priority 2000, published 2004).

With `C=CC(=O)Nc1cc2c(Nc3ccc(F)c(Cl)c3)ncnc2cc1OCCCN1CCOCC1` [Form A, N-[4-(3-chloro-4-fluorophenylamino)-7-(3-morpholin-4-ylpropoxy)-quinazolin-6-yl]-acrylamide Dihydrochloride Form A], where the note is “listed as A”, the “HPLC Purity Start” value is listed as 99.28 rel %. Also, the “HPLC Purity” value runs as follows: (16 hr, 100° C., then 8 hr, 150° C., (s): test tube with glass stamp, listed as A) 23.45 (s) rel %; (16 hr, 100° C., then 8 hr, 150° C., open test tube, listed as A) 25.28 rel %; (7 d, 80° C., (s): test tube with glass stamp, listed as A) 99.02 (s) rel %; (7 d, 80° C., open test tube, listed as A) 97.51 rel %.

In the case of `C=CC(=O)Nc1cc2c(Nc3ccc(F)c(Cl)c3)ncnc2cc1OCCCN1CCOCC1` [Form B, N-[4-(3-chloro-4-fluorophenylamino)-7-(3-morpholin-4-ylpropoxy)-quinazolin-6-yl]-acrylamide Dihydrochloride Form B], the “HPLC Purity Start” value (listed as B) turned out to be 99.77 rel %. In addition, the “HPLC Purity” value is 75.28 (s) rel % (16 hr, 100° C., then 8 hr, 150° C., (s): test tube with glass stamp, listed as B); 75.32 rel % (16 hr, 100° C., then 8 hr, 150° C., open test tube, listed as B); 84.40 (s) rel % (7 d, 80° C., (s): test tube with glass stamp, listed as B); 89.39 rel % (7 d, 80° C., open test tube, listed as B).

`C=CC(=O)Nc1cc2c(Nc3ccc(F)c(Cl)c3)ncnc2cc1OCCCN1CCOCC1` [Form M, N-[4-(3-chloro-4-fluorophenylamino)-7-(3-morpholin-4-ylpropoxy)-quinazolin-6-yl]-acrylamide Dihydrochloride Form M]: where the note is “heating at 80° C. or 150° C., in comparison to the forms A or B”, the “stability towards the heating of the solid substance” value is listed as “more stable form”. Also, the “HPLC Purity Start” value (listed as M) is given as 99.49 rel %. Also, the “HPLC Purity” value was 99.43 (s) rel % (16 hr, 100° C., then 8 hr, 150° C., (s): test tube with glass stamp, listed as M); 99.43 rel % (16 hr, 100° C., then 8 hr, 150° C., open test tube, listed as M); 99.61 (s) rel % (8 d, 80° C., (s): test tube with glass stamp); 99.62 rel % (8 d, 80° C., open test tube).
